| SMILES | logP |
| --- | --- |
| COc1ccc(CCNC[C@H](O)COc2ccc(-c3nc(Cl)c(C)[nH]3)cc2)cc1OC | 2.35 |
| COc1ccc(CCNC[C@H](O)COc2ccc(CCc3ncc(-c4cccs4)[nH]3)cc2)cc1OC | 2.08 |
| COc1ccc(CCNCC(O)COc2ccc(-c3ncc(C)[nH]3)cc2OC)cc1OC (centres undefined) | 1.89 |
| COc1ccc(CCNC[C@H](O)COc2ccc(Cc3ncc(C)[nH]3)cc2)cc1OC | 1.28 |
| OC(CNCCc1ccncc1)COc1ccc(-c2ncc(-c3cccs3)[nH]2)cc1 (centres undefined) | 2.25 |
| COc1ccc(CCNCC(O)COc2ccc(-c3nccn3C)cc2)cc1OC (centres undefined) | 2.08 |
| COc1ccc(CCNC[C@H](O)COc2ccc(Cc3ncc(-c4cccs4)[nH]3)cc2)cc1OC | 2.28 |
| COc1ccc(CCNC[C@H](O)COc2ccc(COCc3ncc[nH]3)cc2)cc1OC | 1.29 |
| COCCc1cnc(-c2ccc(OC[C@@H](O)CNCCc3ccc(OC)c(OC)c3)cc2)[nH]1 | 2.06 |
| CCOCc1cnc(-c2ccc(OC[C@@H](O)CNCCc3ccc(OC)c(OC)c3)cc2)[nH]1 | 0.84 |
| COc1ccc(CCNC[C@H](O)COc2ccc(-c3ncc(Br)[nH]3)cc2Cl)cc1OC | 2.73 |
| COc1ccc(CCNC[C@H](O)COc2ccc(-c3nc(C(C)=O)c(C)[nH]3)cc2)cc1OC | 2.14 |
| CCOC(=O)c1cnc(-c2ccc(OC[C@@H](O)CNCCc3ccc(OC)c(OC)c3)cc2)[nH]1 | 2.3 |
| COc1ccc(CCNC[C@H](O)COc2ccc(-c3ncc(-c4cccs4)[nH]3)cc2C)cc1OC | 3.32 |
| COc1ccc(CCNCC(O)COc2ccc(-c3ncc(C)n3C)cc2)cc1OC (centres undefined) | 1.72 |
| COc1ccc(CCNCC(O)COc2ccc(-c3ncc(C)[nH]3)cc2Br)cc1OC (centres undefined) | 2.3 |
| COCc1nc(-c2ccc(OC[C@@H](O)CNCCc3ccc(OC)c(OC)c3)cc2)[nH]c1C | 1.07 |
| COc1ccc(CCNC[C@H](O)COc2ccc(-c3ncc(C(C)(C)C)[nH]3)cc2)cc1OC | 2.86 |
| COCc1cnc(-c2ccc(OC[C@@H](O)CNCCc3ccc(OC)c(OC)c3)cc2)[nH]1 | 1.71 |
| COc1ccc(CCNC[C@H](O)COc2ccc(Cc3ncc(C(C)=O)[nH]3)cc2)cc1OC | 0.87 |

Next, values leading:

| logP | SMILES |
| --- | --- |
| 2.25 | CCOCCNCC(O)COc1ccc(-c2ncc(-c3cccs3)[nH]2)cc1 (centres undefined) |
| 2.23 | CC(C)NC[C@H](O)COc1ccc(-c2ncc(C(C)C)[nH]2)cc1 |
| 2.84 | CCCNCC(O)COc1ccc(-c2ncc(-c3cccs3)[nH]2)cc1 (centres undefined) |
| 2.69 | COc1ccc(CCNC[C@H](O)COc2ccc(-c3nc(Br)c(C)[nH]3)cc2)cc1OC |
| 0.65 | CC(C)NCC(O)COc1ccc(-c2ncc[nH]2)cc1 (centres undefined) |
| 1.21 | COc1ccc(CCNCC(O)COc2ccc(OCc3ncc[nH]3)cc2)cc1OC (centres undefined) |
| 1.24 | CCCCNC(=O)NCCNCC(O)COc1ccc(-c2ncc(C)[nH]2)cc1 (centres undefined) |
| 2.4 | COc1ccc(CCNC[C@H](O)COc2ccc(-c3ncc(Cl)[nH]3)cc2)cc1OC |
| 2.18 | CC(C)NCC(O)COc1ccc(-c2ncc(-c3cccs3)[nH]2)cc1 (centres undefined) |
| 1.9 | COc1ccc(CCNC[C@H](O)COc2ccc(-c3ncc(Br)[nH]3)cc2)cc1OC |
| 2.57 | CC(C)(C)NC[C@H](O)COc1ccc(Cc2ncc(-c3cccs3)[nH]2)cc1 |
| 1.11 | Cc1cnc(Cc2ccc(OC[C@@H](O)CNC(C)(C)C)cc2)[nH]1 |
| 1.19 | O=C(NCCNCC(O)COc1ccc(-c2ncc[nH]2)cc1)Nc1ccccc1 (centres undefined) |
| 1.35 | CC(C)NC[C@H](O)COc1ccc(Cc2ncc(Br)[nH]2)cc1 |
| 2.6 | COc1ccc(CCNCC(O)COc2ccc(-c3ncco3)cc2)cc1OC (centres undefined) |
| 0.63 | COc1ccc(CCNC[C@H](O)COc2ccc(-c3ncc(CO)[nH]3)cc2)cc1OC |
| 1.23 | COc1ccc(CCNC[C@H](O)COc2ccc(-c3ncc(C(C)=O)[nH]3)cc2)cc1OC |
| 0.99 | COc1ccc(CCNC[C@H](O)COc2ccc(-c3ncc(C(N)=O)[nH]3)cc2)cc1OC |
| 2.49 | COc1ccc(CCNC[C@H](O)COc2ccc(-c3ncc(C(C)C)[nH]3)cc2)cc1OC |

From the SangsterLogP compilation
